From US8198061B2, “Acetylcholinesterase gene responsible for insecticide resistance and applications thereof” (priority 2002, dated 2012)

How the values were obtained:
[1] = target: T1, Culex pipiens AChE1, sensitive S-LAB strain (glycine at position 119) (Culex pipiens, UniProt Q86GC8); test: Acetylcholinesterase activity of recombinant sensitive AChE1 (S2 cell extracts) with propoxur; format: biochemical; settings: 10^−3 M of propoxur
T1 construct: The cDNAs encoding the AChE1s of, respectively, the strain S-LAB and the strain SR were cloned in the eukaryotic expression vector pAc5.1/V5-His; V5-His (from the vector pAc5.1/V5-His); made in house; host or cells: Drosophila Schneider S2 cells, transiently transfected; Triton X-100 cell extract, not purified
Description: (§1) The cDNAs encoding the AChE1s of, respectively, the strain S-LAB and the strain SR were cloned in the eukaryotic expression vector pAc5.1/V5-His (INVITROGEN), according to conventional recombinant DNA techniques, by following standard protocols such as those described in Current Protocols in Molecular Biology, mentioned above. Drosophila cells (Schneider S2 cells) were transfected with the recombinant vectors thus obtained, using the Fugen® reagent (ROCHE), according to the manufacturer's instructions. 24 hours after transfection, the cells were harvested by centrifugation and then lyzed in a 0.25M phosphate buffer containing 1% Triton X-100. The acetylcholinesterase activity of the cell extracts obtained was measured, in the presence or in the absence of insecticide (propoxur), by the method as described in Bourguet et al., Biochemical Genetics, 1996, 34, 351-362.
(§2) The recombinant AChE1s of, respectively, the strain S-LAB and the strain SR were expressed in insect cells and the acetylcholinesterase activity was measured using cell extracts as described in example 1.

[2] = target: T2, Culex pipiens AChE1, resistant SR strain (serine at position 119, G119S) (Culex pipiens, UniProt Q86GC8, G247S); test: Acetylcholinesterase activity of recombinant resistant AChE1 (S2 cell extracts) with propoxur; format: biochemical; settings: glycine247(119)→serine247(119) mutant (SR); 10^−4 M and 10^−2 M of propoxur; FIG. 10
T2 construct: The cDNAs encoding the AChE1s of, respectively, the strain S-LAB and the strain SR were cloned in the eukaryotic expression vector pAc5.1/V5-His; V5-His (from the vector pAc5.1/V5-His); made in house; host or cells: Drosophila Schneider S2 cells, transiently transfected; Triton X-100 cell extract, not purified
Description: as §1, §2

[3] = system: C. pipiens larvae; test: Larval mortality on exposure to propoxur (back crosses, ace-1 linkage study); format: in vivo, Culex pipiens
Method: With the females being indicated first, F1 crosses (S×R) and back crosses (F1×S-LAB and S-LAB×F1) were obtained by mass crossing of adults. A few larvae derived from the back crosses were treated with a dose of carbamate (propoxur, 4 mg/l) which kills 100% of sensitive larvae. The linkage between ace-1 and propoxur resistance was studied by RFLP in the surviving larvae, based on a 320 bp PCR product making it possible to identify the S and R alleles. The experiments were carried out independently, with S=SA1, S=SA4 and S=EDIT.
The linkage between the ace-1 gene and propoxur resistance was studied, in triplicate, in the following way: larvae from a backcross (S×R)×S were treated for a dose that is lethal for sensitive individuals and the ace-1 genotype was analyzed in the survivors, by PCR-RFLP.

[4] = target: AChE; settings: Abramson et al., Mol. Pharmacol., 1989, 36, 349; read-out: apparent affinity; cited from earlier work

| Structure (SMILES) | activity of the AChE1 inhibited [1] [%] | sensitivity of the acetylcholinesterase to the insecticide [2] | larvae killed in back crosses ([3]; larvae from backcross (S×R)×S, dose lethal for sensitive individuals, all back crosses) [%] | sensitive larvae killed ([3]; sensitive larvae, propoxur 4 mg/l) [%] | Kd [4] [µM] |
| --- | --- | --- | --- | --- | --- |
| CNC(=O)Oc1ccccc1OC(C)C [propoxur] | 90 | insensitive | 50 | 100 |  |
| C=C1CCCC(C)(C)C1C/C=C(C=O)\C=C\OC(C)=O (centres unmarked) [onchidal] |  |  |  |  | 300 |
